Columns and labels:
[1] = system: Normal human vaginal epithelial cells; test: Cell proliferation, CellTiter 96 Aqueous One Solution; type: cell-based; conditions: 10^-5 M, three days after treatment, absorbance at 490 nm, vs control medium, p<0.05
Experimental: Normal human vaginal epithelial cells from Clonetics (NHVE 5164) were subcultured in basal PrEBM (Clonetics CC 3165) within 96 well plates at 37° C., 5% CO2. Cells were then exposed to medium containing mannose-6-phosphate (Sigma, M3655) at a concentration of 10^−5 M. Control groups received culture medium without mannose-6-phosphate. Cell proliferation was examined three days later and glycogen positive cells were detected five days after mannose-6-phosphate treatment. Cell proliferation was examined by using CellTiter 96 Aqueous One Solution from Promega (#TB245). Twenty μl of the reagent was added to each well. The plates were returned to cell culture incubator for 3 hours. The absorbance in each well was measured at 490 nm with a microtiter reader.

[2] = system: Normal human vaginal epithelial cells; test: Periodic acid Schiff (PAS) assay for glycogen-positive cells; type: cell-based; conditions: 10^-5 M, five days after treatment, manually counted, vs control medium
Experimental: Normal human vaginal epithelial cells from Clonetics (NHVE 5164) were subcultured in basal PrEBM (Clonetics CC 3165) within 96 well plates at 37° C., 5% CO2. Cells were then exposed to medium containing mannose-6-phosphate (Sigma, M3655) at a concentration of 10^−5 M. Control groups received culture medium without mannose-6-phosphate. Cell proliferation was examined three days later and glycogen positive cells were detected five days after mannose-6-phosphate treatment.
A periodic acid Schiff (PAS) assay was used to detect glycogen levels. Before the assay, cells were washed with PBS and fixed with a 10 vol % Formalin/ethanol solution for 1 hour at room temperature, followed by continuous rinsing with deionized (DI) water for 1 minute. A Harleco® PAS Assay Kit (from EM Science 64945/43) was used for glycogen detection. The basic principle is that the hydroxy groups on the glycogen units were first oxidized into aldehyde groups by periodic acid, and the aldehyde groups reacted with Schiff's agent to produce a red colorant. The specific assay operations were all done at room temperature as follows: • 1. Periodic acid reagent was added to the well/chamber and allowed to stand for 10 minutes. • 2. […] The numbers of glycogen-stained positive cells were manually counted under microscope. The data was analyzed by student's t test, and p<0.05 was considered significant. […]

For `O=C[C@@H](O)[C@@H](O)[C@H](O)[C@H](O)COP(=O)(O)O` [mannose-6-phosphate], the vaginal cell proliferation [1] was “significantly (p<0.05) increased” and the “number of glycogen-positive cells” value [2] was “significantly higher”.

Reference: patent US20080057107A1, “COMPOSITIONS FOR VAGINAL TREATMENT” (Kimberly-Clark Worldwide, Inc., priority 2004, published 2008)
